A short description of data set [1]: Animal study of alpha-tocotrienol quinone administration, pharmacokinetics in fasted dogs. The settings on record: dog, in vivo, po, 10 mg/kg. The method, then: (§1) The particular dosage appropriate for a specific patient is determined by dose titration. […] There is less than dose-proportionality since for an increase in doses of 2.4:6:10:20 there is only an increase in AUCs of 1.5:2.8:4.0:6.7. This lack of dose-proportionality may be due to decreased absorption since there is no change in t1/2 over dose range. Alpha-tocotrienol quinone tested in rats was safe when given acutely up to 2000 mg/kg.

The nature of data set [2]: Animal study of alpha-tocotrienol quinone administration, pharmacokinetics in rats. The conditions noted are these: rat, in vivo, 10 mg/kg. As to the method: as §1
Data set [3] relates to patient with Leigh Syndrome. The experiment in a line: Treatment of a Leigh Syndrome patient with SURF-1 mutations (Example 2): lactate, MRI, adverse events. The class given is in vivo, human. The conditions noted are these: Example 2 patient. As to the method: A patient with Leigh Syndrome was treated with alpha-tocotrienol quinone. Informed consent was obtained from the child's parents in accordance with federal regulations and institutional protocol. Two mutations were identified in the SURF-1 gene of the patient.
(§2) The patient's weight was approximately 10 kg. Alpha-tocotrienol quinone was administered to the patient via gastrointestinal feeding tube; the drug was mixed with sesame oil for administration. The following dosing of alpha-tocotrienol quinone was used:
The patient returned for a review of safety and efficacy evaluation, including CNS lactate/pyruvate ratios as determined by non-invasive means (MRI/MRS) and ECHO. The following efficacy parameters were evaluated: PK parameters; magnetic resonance spectroscopy of central nervous system; echocardiography and electrocardiogram; and plasma and urine analytes.
Lactic acid measurements were as follows:
Magnetic resonance imaging of the patient was performed to assess the effect of treatment. […] These findings are consistent with Leigh Syndrome encephalopathies.
Close monitoring of the patient during the study was performed, to detect any adverse events. In addition, the investigator had authority to stop the study if the safety of the subject was at risk.

Data set [4] is described as follows: Blood-brain barrier crossing, homogenized brains of mice dosed IP. The class given is in vivo. The conditions noted are these: C57/BL mice dosed IP at 25 mg/kg, FIG. 5.
The subject of data set [5] is patient with Leigh Syndrome. Kind of data set: Treatment of a Leigh Syndrome patient (Example 3), observed function. The class given is in vivo, human. The conditions noted are these: Example 3 patient. As to the method: A patient with Leigh Syndrome was treated with alpha-tocotrienol quinone. Informed consent was obtained from the child's parents in accordance with federal regulations and institutional protocol. A mutation was identified in the SURF-1 gene of the patient.
At the start of treatment, the patient was unable to control their extremities. […] The patient also gained weight.

In the next data set the test system is SURF-1 fibroblasts. Kind of data set: Surfeit-1 (SURF1) cell line assay: rescue of BSO-stressed patient fibroblasts, Calcein AM viability. The class given is cell-based. The conditions noted are these: Homo sapiens, Fibroblast, BSO-stressed fibroblasts of the Example 2 patient. The method, then: Alpha-Tocotrienol quinone, its redox-silent version (the bis-Boc protected corresponding hydroquinone), and solvent controls were tested for their ability to rescue cells from SURF-1 fibroblasts of the patient diagnosed with SURF-1 described in Example 2, when the cells were stressed by addition of L-buthionine-(S,R)-sulfoximine (BSO), as described in Jauslin et al., Hum. Mol. Genet. 11(24):3055 (2002), Jauslin et al., FASEB J. 17:1972-4 (2003), and International Patent Application WO 2004/003565. EC50 concentrations of test compound and its redox-silent version were determined and compared. The following compound, 2-((6E,10E)-3-hydroxy-3,7,11,15-tetramethylhexadeca-6,10,14-trienyl)-3,5,6-trimethyl-bis(t-butyloxycarbonyl)benzene-1,4-diol, the bis-Boc protected hydroquinone form of alpha-tocotrienol quinone, was used as the “redox-silent” alpha tocotrienol quinone, or αTTQ-RS.
MEM (a medium enriched in amino acids and vitamins, catalog no. 1-31F24-I) and Medium 199 (M199, catalog no. 1-21F22-I) with Earle's Balanced Salts, without phenol red, were purchased from Bioconcept. Fetal Calf Serum was obtained from PAA Laboratories. Basic fibroblast growth factor and epidermal growth factor were purchased from PeproTech. Penicillin-streptomycin-glutamine mix, L-buthionine (S,R)-sulfoximine, and insulin from bovine pancreas were purchased from Sigma. […]

Data set [6] in a line: Treatment of a Leigh Syndrome patient with SURF-1 mutations (Example 2): drug levels in plasma and CSF. The class given is in vivo, human. The settings on record: Example 2 patient. As to the method:
as §2
Full pharmacokinetic sampling (post dose, 3 h, 6 h, 10 h, 24 h, 36 h, 48 h, and 72 h) was done after administration of the initial dose. 0.5 mL of blood were taken at each time point, for a total of four mL of blood drawn at 72 h. Bio-analysis and pharmacokinetic calculations were conducted.
The minimal effective dose of alpha-tocotrienol quinone was determined. The concentration 24 hours after dosing (C24h) was expected to be 220.5 ng/ml (0.504), while the minimal effective dose was expected to be around 150 mg. Thus, the daily dosage was escalated stepwise.
The concentration of alpha tocotrienol quinone was monitored in the patient. […] Alpha tocotrienol quinone was present at 1.3 ng/ml in CSF.

The conditions of data set [7]: rat, in vivo. As to the method: as §1
The starting dose can be estimated based on the United States Food and Drug Administration guidelines titled “Estimating the Maximum Safe Starting Dose in Initial Clinical Trials for Therapeutics in Adult Healthy Volunteers” (July 2005) as well as the International Conference on Harmonisation of Technical Requirements for Registration of Pharmaceuticals for Human Use (ICH) guidelines titled “Guidance on Non-clinical Safety Studies for the Conduct of Human Clinical Trials and Marketing Authorization for Pharmaceuticals” (July 2008). Per ICH guidelines, predicted exposures from the starting dose should not exceed 1/50th the NOAEL (No-Adverse-Observed-Effect-Level) in the more sensitive species on a mg/m^2 basis. Following a single oral dose of alpha-tocotrienol quinone, the NOAEL was established to be 500 mg/kg for the female rat, i.e. 3,000 mg/m2. This dosage would be equivalent to 81 mg/kg in an adult human. […]

[8] abbreviates: after treatment compared with pre-treatment MRI.

Each structure is given as a SMILES string. Where two headings read alike, the source gives them in different places.

Broadly, the bioavailability is the share of a dose that reaches the circulation, judged against a reference dose that is usually intravenous. Read a low bioavailability as little systemic uptake. For orientation: EC50 means the concentration at which the effect is half-maximal.

`CC(C)=CCC/C(C)=C/CC/C(C)=C/CCC(C)(O)CCC1=C(C)C(=O)C(C)=C(C)C1=O` (stereo not drawn) [alpha-tocotrienol quinone, Alpha-tocotrienol quinone]: in data set [1], the bioavailability was about 16%. In data set [2], this compound had a bioavailability of about 90%. Besides, the adverse events result in data set [3] (close monitoring during the study, FIG. 7) is on record as “No adverse events were observed”. Also, the “plasma lactate level after treatment” value in data set [3] (3.6 mM approximately 4 months prior to treatment, normal range 1.0 to 1.4 mM) is reported as 1.1 mM. For the same compound, the “CSF lactate level after treatment” value in data set [3] (46.5 mg/dL about 2 years pre-treatment) worked out at 24.0 mg/dL. Moreover, in data set [3] (setting [8]), the “MRI: T2 hyperintensities of midbrain, pons, medulla and cerebellum” value is given as “interval improvement”; the “MRI: amount of lesions” value is reported as “overall decrease”. Further, the “reduction of CSF lactate” value in data set [3] (after treatment vs about 2 years pre-treatment) is 48.4%. Also, in data set [3] (after treatment vs approximately 4 months prior), the “reduction of plasma lactate” value is listed as 69.4%. The “decrease in brain lactate” value in data set [3] (two days prior to treatment to approximately 98 days after starting) is on record as 20-30%. The “crosses the blood-brain barrier” value in data set [4] is “crosses the blood-brain barrier”. Further, in data set [5] (after 22 days of treatment, unable to control extremities at start), the control of extremities entry is recorded as “able to move their arm in the “high-five” gesture”. Further, in data set [5] (after 379 days of treatment), the motor function entry is “able to sit upright” and the weight gained is recorded as 15 pounds. Further, in data set [5] (under treatment), the gastrointestinal function entry was “greatly improved” and the sleep entry was “improved”. Further, the EC50 in the data set on SURF-1 fibroblasts (FIG. 1 experiment run beside Coenzyme Q10, read-out: EC50, viability of cells with a SURF-1 mutation (FIG. 1)) was 27 nM. In the data set on SURF-1 fibroblasts (FIG. 2 experiment run beside αTTQ-RS, read-out: EC50, viability of cells with a SURF-1 mutation (FIG. 2)), the EC50 is 21 nM. The “concentration 24 hours after dosing (C24h), expected” value in data set [6] (expectation before dose escalation) stood at 220.5 ng/mL. For the same compound, in data set [6] (human, cerebrospinal fluid, other: via gastrointestinal feeding tube, 98th day of treatment, FIG. 9), the concentration at 98 day of treatment came out at 1.3 ng/mL. In addition, the “dose at which safe when given acutely” value in data set [7] is listed as “up to 2000 mg/kg”. Further, the “NOAEL on mg/m2 basis” value in data set [7] (po) is on record as 3,000 mg/m2.

The values above are taken from patent US20170246124A1, “TREATMENT OF LEIGH SYNDROME AND LEIGH-LIKE SYNDROME WITH TOCOTRIENOL QUINONES” (BioElectron Technology Corporation, priority 2009, published 2017).
